Where two headings read alike, the source gives them in different places.
How the values were obtained:
[1] = system: pro-inflammatory cytokines; test: Secreted cytokines of PBMCs following LPS stimulation (multiplex); type: cell-based, mouse
Description: To investigate how DHCA may attenuate IL-6 generation, we tested the effect of DHCA on Toll-like receptor-4 mediated signaling pathways. PBMCs were pretreated with DHCA and stimulated with LPS using the same protocol as during screening. Samples were taken at 0, 30 min, 60 min, 6 h and 16 h following LPS stimulation and cell lysates were subjected to a multiplex ELISA assay. […] Based on evidence that DNA methylation at a single CpG in the human IL-6 promoter region effectively alters IL-6 expression, we next tested whether DHCA can modulate IL-6 gene expression through methylation mechanisms. We treated PBMC cells with DHCA and measured the expression of enzymes essential for DNA methylation/demethylation. […] To investigate how methylation influences IL-6 gene expression, we employed the CpG-free luciferase reporter system. We cloned a ~280 bp CpG rich DNA segment from the mouse IL-6 promoter into a promoterless CpG-free reporter construct and transfected into N2a cells. We found the CpG-rich IL-6 promoter segment presented no inherent promoter activity as reflected by no differences in luciferase activity compared to the control construct (Fig. 2f). […] To test whether DHCA may influence the expression of other pro-inflammatory factors, we measured the level of secreted cytokines following LPS stimulation (Supplementary Fig. 3). […]

[2] = Cytotoxicity by high content screening (HCS); type: cell-based; details: human, HepG2 cells
From the text: Based on the efficacy of DHCA/Mal-gluc in treating stress-induced depression, we initiated an in vitro toxicity and drug-like properties studies to investigate the potential of developing these two phytochemicals as novel therapies. […] At low concentrations, DHCA and Mal-gluc had no detectable effects on cell number, nuclear size, DNA structure, cell membrane permeability, mitochondrial mass, mitochondrial membrane potential or cytochrome C release in high content screening (HCS)[41] using HepG2 cells (Table 1). At high concentrations, Mal-gluc reduced cell number, increased nuclear size, […], and increased mitochondrial mass, with calculated EC50s beyond physiological concentration (Table 1).
MTT and LDH release assays were conducted in MSN-enriched primary neurons and in PBMCs[64]. Cellular cytotoxicity was conducted in HepG2 cells using high content screening (HCS) protocols. Briefly, HepG2 cells were plated on 384-well tissue culture treated black walled clear bottomed polystyrene plates and treated with varying concentrations of Mal-gluc or DHCA. The cells were loaded with the relevant dye/antibody for each cell-health marker following incubation, including cell count, markers for nuclear size, DNA structure, cell membrane permeability, mitochondrial mass, mitochondrial membrane potential and cytochrome C release. The plates were then scanned using an automated fluorescent cellular imager ArrayScanr (Thermo Scientific Cellomics).

[3] = system: Rac1; test: In vivo dose finding: Rac1 mRNA in the NAc; set-up: species or system mouse; details: 50 ng to 5 mg/kg-BW/day in drinking water, 2 weeks; strongest at 500 ng and 5 µg/kg-BW/day
Description: We then initiated dose response and safety studies in mice to determine testing dosages and safety of DHCA and Mal-gluc. C57BL/6 mice were treated with either DHCA (doses ranging from 50 µg to 50 mg/kg-BW/day) or Mal-gluc (doses ranging from 50 ng to 5 mg/kg-BW/day) for 2 weeks to simulate long-term administration. Mice treated with DHCA were challenged with intraperitoneal (i.p.) injection of 0.4 mg/kg-BW LPS and plasma levels of IL-6 were measured 6 h post injection. […] Following common discovery-stage practices, we measured the plasma levels of alkaline phosphatase (ALP), aspartate aminotransferase (AST), and alanine aminotransferase (ALT) for liver function and blood urea nitrogen (BUN) for renal function.
Male C57BL/6 J mice (8-week-old) were placed on a polyphenol-free AIN-93M diet and treated with various doses of DHCA (vehicle, 50 µg, 500 µg, 5 mg, and 50 mg/kg-BW/day), delivered through their drinking water for two weeks. […]
Total RNA from MSN-enriched cultures or brain NAc was isolated using the RNeasy Mini Kit (Qiagen, Valencia, CA, USA) and reverse transcribed. Gene expression was measured in four replicates by quantitative RT-PCR using Maxima SYBR Green master mix (Fermentas) in ABI Prism 7900HT. […]

[4] = system: enzymes involved in de novo methylation and demethylation; test: Expression of de novo methylation/demethylation enzymes in MSN-enriched primary culture; type: cell-based, mouse; details: MSN-enriched primary cultures
From the text: Stress-induced reduction of Rac1 expression is associated with a repressed chromatin state surrounding the promoter region of Rac1 in the NAc[11]. Since Mal-gluc can cross the BBB, we hypothesized that Mal-gluc may promote Rac1 expression, in part, by modulating chromatin acetylation. We first assessed the effect of Mal-gluc on HDACs that play key roles in chromatin deacetylation. […] Using site directed quantitative chromatin immunoprecipitation (qCHIP), we examined the permissive histone H3 acetylation (AcH3) in Mal-gluc treated MSN-enriched primary cultures.
Total RNA from MSN-enriched cultures or brain NAc was isolated using the RNeasy Mini Kit (Qiagen, Valencia, CA, USA) and reverse transcribed. Gene expression was measured in four replicates by quantitative RT-PCR using Maxima SYBR Green master mix (Fermentas) in ABI Prism 7900HT. Primer sequences are listed in Supplementary Table 2. Mouse hypoxanthine phosphoribosyltransferase (HPRT) expression level was used as an internal control. Data were normalized using the 2^-ΔΔCt method. Levels of target gene mRNAs were expressed relative to those in control cultures or mice and plotted in GraphPad Prism.

| SMILES | cytokine expression profile ([1]; PBMCs in the absence of LPS stimulation) | LPS-induced production of cytokines (GM-CSF, IL-1β, IL-12 p40 and p70, IL-17, MCP-1) ([1]; PBMCs with LPS stimulation) | AC50 ([2]; DHCA ↑ (NS, fit not statistically significant), NR = No response observed, read-out: Cytotoxicity by HCS (AC50), Mitochondrial membrane potential) | AC50 ([2]; DHCA ↑, NR = No response observed, read-out: Cytotoxicity by HCS (AC50), Cytochrome C release) | AC50 ([2]; Malvidin-gluc ↑, NR = No response observed, read-out: Cytotoxicity by HCS (AC50), Mitochondrial mass) | AC50 ([2]; Malvidin-gluc ↑, NR = No response observed, read-out: Cytotoxicity by HCS (AC50), Nuclear size) | AC50 ([2]; Malvidin-gluc ↓, NR = No response observed, read-out: Cytotoxicity by HCS (AC50), Cell number) | AC50 ([2]; NR = No response observed, read-out: Cytotoxicity by HCS (AC50), DNA structure) | AC50 ([2]; both ↓, read-out: Cytotoxicity by HCS (AC50), Cell membrane permeability) | Rac1 mRNA in the NAc [3] | expression of enzymes of de novo methylation and demethylation [4] |
| --- | --- | --- | --- | --- | --- | --- | --- | --- | --- | --- | --- |
| O=C(O)CCc1ccc(O)c(O)c1 [DHCA, 3(3,4-dihydroxy-phenyl) propionic acid] | did not influence cytokine expression profile | significantly reduced LPS-induced production of cytokines | > 200 µM | > 200 µM | > 200 µM | > 200 µM | > 200 µM | > 200 µM | 56.6 µM | – | – |
| COc1cc(-c2[o+]c3cc(O)cc(O)c3cc2O[C@@H]2O[C@H](CO)[C@@H](O)[C@H](O)[C@H]2O)cc(OC)c1O [Mal-gluc] | – | – | – | – | – | – | – | – | – | dose-response increase of Rac1 expression | did not affect |
